Test results from the NIST ThermoML archive (doi:10.1021/je301087w).
Numbers after ± are expanded uncertainties.

What was measured:
[1] = Crystal; DTA
[2] = Molar enthalpy of transition or fusion; conditions: Crystal; DSC

Normal melting temperature [1] | Molar enthalpy of transition or fusion [2] | Compound
9.90 ± 0.53 °C | 4.66 ± 0.932 kcal/mol | C1COCCOCCOCCOCCOCCO1.O.O.O.O.O.O.O.O.O.O.O.O [1,4,7,10,13,16-hexaoxacyclooctadecane dodecahydrate]
17.10 ± 0.53 °C | 2.8 ± 0.574 kcal/mol | C1COCCOCCOCCOCCOCCO1.O.O.O.O.O.O.O.O [1,4,7,10,13,16-hexaoxacyclooctadecane octahydrate]
39.10 ± 0.53 °C | 8.48 ± 0.741 kcal/mol | C1COCCOCCOCCOCCOCCO1 [1,4,7,10,13,16-hexaoxacyclooctadecane]
